The text below walks through data of article PMC8775252, “Characterization of Alternaria porri causing onion purple blotch and its antifungal compound magnolol identified from Caryodaphnopsis baviensis” (PLoS ONE, 2022).

In brackets after ≈: the same amount, converted by molar mass. Where two headings read alike, the source gives them in different places. Some results are limits rather than exact numbers.

In data set [1] the test system is Phytophthora infestans. Put plainly: microbe, parasite or virus in culture. The format is cell-based. The note with it: 72 h, 3 days, 25°C.
The test system of data set [2] is Magnaporthe oryzae. Put plainly: microbe, parasite or virus in culture. The format is cell-based. The note with it: Pyricularia oryzae, 72 h; 3 days, 25°C.
The subject of data set [3] is Colletotrichum cocodes. The data set can be described thus: microbe, parasite or virus in culture. The format is cell-based. Particulars: 72 h, 3 days, 25°C.
The subject of data set [4] is Alternaria porri. Put plainly: microbe, parasite or virus in culture. The format is cell-based. The note with it: 72 h, 3 days, 25°C.
In data set [5] the test system is Fusarium oxysporum. The data set can be described thus: microbe, parasite or virus in culture. The format is cell-based, Fusarium oxysporum f. sp. lycopersici. Particulars: 72 h, 3 days, 25°C.
For data set [6], the system named is Alternaria brassicicola. The data set can be described thus: microbe, parasite or virus in culture. The format is cell-based. Particulars: 72 h, 3 days, 25°C.
Data set [7] relates to Botrytis cinerea. The data set can be described thus: microbe, parasite or virus in culture. The format is cell-based. Particulars: 72 h, 3 days, 25°C.
Data set [8] deals with OXPHOS complex II (Bos taurus, UniProt P31039+P35720+Q3T189+Q95123). The data set can be described thus: biochemical.
OXPHOS complex II, sequence (Q95123 56-158): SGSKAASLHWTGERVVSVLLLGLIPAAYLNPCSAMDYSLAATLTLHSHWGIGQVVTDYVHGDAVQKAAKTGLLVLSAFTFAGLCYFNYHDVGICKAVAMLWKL
OXPHOS complex II, sequence (P31039 44-665): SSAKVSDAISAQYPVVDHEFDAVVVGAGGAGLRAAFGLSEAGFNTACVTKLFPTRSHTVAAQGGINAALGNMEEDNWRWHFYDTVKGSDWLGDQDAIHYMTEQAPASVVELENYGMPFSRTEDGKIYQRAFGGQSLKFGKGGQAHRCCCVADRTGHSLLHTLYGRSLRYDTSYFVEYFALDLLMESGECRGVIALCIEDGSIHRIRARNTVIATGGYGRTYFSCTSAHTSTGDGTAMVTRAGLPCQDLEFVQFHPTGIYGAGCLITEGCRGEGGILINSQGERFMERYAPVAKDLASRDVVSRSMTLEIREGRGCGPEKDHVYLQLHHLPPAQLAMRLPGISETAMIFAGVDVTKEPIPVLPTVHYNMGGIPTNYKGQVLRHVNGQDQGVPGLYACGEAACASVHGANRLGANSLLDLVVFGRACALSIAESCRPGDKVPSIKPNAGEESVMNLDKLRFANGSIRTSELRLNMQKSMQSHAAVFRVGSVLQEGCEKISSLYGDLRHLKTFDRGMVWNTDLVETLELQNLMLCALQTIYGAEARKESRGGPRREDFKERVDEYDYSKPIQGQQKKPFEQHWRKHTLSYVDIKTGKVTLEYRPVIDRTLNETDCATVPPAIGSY
OXPHOS complex II, sequence (P35720 30-169): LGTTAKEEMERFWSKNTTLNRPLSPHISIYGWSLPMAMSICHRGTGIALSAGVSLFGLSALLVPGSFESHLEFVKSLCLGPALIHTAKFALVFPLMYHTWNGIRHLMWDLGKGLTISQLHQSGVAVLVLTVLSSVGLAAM
OXPHOS complex II, sequence (Q3T189 29-280): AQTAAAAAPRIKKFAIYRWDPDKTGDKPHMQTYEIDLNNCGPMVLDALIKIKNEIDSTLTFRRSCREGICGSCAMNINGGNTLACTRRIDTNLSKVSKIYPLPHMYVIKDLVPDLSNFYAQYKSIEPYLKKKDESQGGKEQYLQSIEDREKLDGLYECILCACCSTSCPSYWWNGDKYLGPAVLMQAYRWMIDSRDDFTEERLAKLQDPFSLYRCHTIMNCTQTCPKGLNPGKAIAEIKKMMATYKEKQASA
For data set [9], the target named is OXPHOS complex III (Bos taurus, UniProt P00125+P00157+P13272). The format is biochemical.
Data set [10] has as its system Alternaria porri. The data set can be described thus: microbe, parasite or virus in culture. The format is cell-based.
For data set [11], the target named is OXPHOS complex IV (Bos taurus, UniProt P00396+P68530). Put plainly: biochemical.
The subject of data set [12] is OXPHOS complex I. The format is biochemical.
The conditions of data set [13]: in vivo, cited from earlier work.
Data set [14] has as its system Alternaria porri. The data set can be described thus: microbe, parasite or virus in culture. The format is cell-based. This is another data set of the same source.
The test system of data set [15] is onion plants. The note with it: in vivo.
Data set [16] concerns the target OXPHOS complex V (Bos taurus, UniProt P00829+P19483). Put plainly: MitoTox Complete OXPHOS Activity Assay. The format is biochemical.
The test system of data set [17] is onion purple blotch (Alternaria porri). The format is in vivo, Allium cepa L. The note with it: sprayed at 100 μg/ml, 5 dpi.

One may read the IC50 as the concentration that gives 50% inhibition.

Consider `C[C@@H]1C[C@@H]([C@H](O)CC2CC(=O)NC(=O)C2)C(=O)[C@@H](C)C1` [Cycloheximide, cycloheximide, reference compound], for which the MIC in data set [1] stood at 1.6 µg/mL (≈ 5.69 µM); in data set [2] it was 6.3 µg/mL (≈ 22.4 µM); in [3], 1.6 µg/mL (≈ 5.69 µM); in [4], 6.3 µg/mL (≈ 22.4 µM); in data set [5] it was 200 µg/mL (≈ 711 µM); in [6], 6.3 µg/mL (≈ 22.4 µM). Further, the MIC in data set [7] is 50 µg/mL (≈ 178 µM).

For `O=C(CC(=O)C(F)(F)F)c1cccs1` [TTFA, thenoyltrifluoroacetone, reference compound], the “effect on complex II activity” value in data set [8] is recorded as “suppressed each complex activity in a concentration-dependent manner”.

For the compound `CCCCCC[C@H]1C(=O)O[C@H](C)[C@H](NC(=O)c2cccc(NC=O)c2O)C(=O)O[C@@H](C)[C@@H]1OC(=O)CC(C)C` [antimycin A, reference compound], in data set [9], the “effect on complex III activity” value was “suppressed each complex activity in a concentration-dependent manner”.

As to `C=CCc1ccc(O)c(-c2cc(CC=C)ccc2O)c1` [magnolol, 5,5’-di-2-propenyl-1,1’-biphenyl-2,2’-diol], the IC50 in data set [10] (10 h, read-out: IC50, spore germination) is 4.5 µg/mL (≈ 16.9 µM); in [11], 10.9 µM; in data set [8], 8.3 µM; in data set [14] (Alternaria porri, 168 h, read-out: IC50, mycelial growth), 5.4 µg/mL (≈ 20.3 µM); in data set [16] (read-out: IC50, complex V activity) it was 4.7 µM; in [9] (read-out: IC50, complex III activity), 19.4 µM. In addition, the MIC is 11 µg/mL (≈ 41.3 µM) in [10] (read-out: MIC, spore germination completely inhibited); greater than 100 µg/mL in data set [1]; 3.1 µg/mL (≈ 11.6 µM) in data set [2]; 6.3 µg/mL (≈ 23.7 µM) in data set [3]; 6.3 µg/mL (≈ 23.7 µM) in [4]; 25 µg/mL (≈ 93.9 µM) in data set [5]. The MIC is 100 µg/mL (≈ 375 µM) in [14] (Alternaria porri, read-out: MIC, mycelial growth completely inhibited); 6.3 µg/mL (≈ 23.7 µM) in [6]; 25 µg/mL (≈ 93.9 µM) in data set [7]. In addition, the “activity of complex I” value in data set [12] came to 78%. Moreover, in data set [12], the “effect on complex I activity” value is listed as “decreased by the magnolol treatment in a concentration-dependent manner”. For the same compound, the “excreted in the feces and urine” value in data set [13] (po) was greater than 90%. Also, the “oral dose remaining circulating in the free form” value in data set [13] was 1%. Besides, in [14], the “inhibitory activity on mycelial growth compared with mancozeb” value is given as “more potent than that of the broad-spectrum fungicide mancozeb”. Further, the phytotoxic symptoms result in [15] is “no phytotoxic symptoms”.

As to `CC[C@H]1/C=C/C=C/C[C@@H](C)[C@H](O)[C@@](C)(O)C(=O)[C@@H](C)[C@H](O)[C@@H](C)C(=O)[C@@H](C)[C@H](O)[C@@H](C)/C=C/C(=O)O[C@@H]2[C@H](C)[C@H](CC1)O[C@]1(CC[C@H](C)[C@H](C[C@@H](C)O)O1)[C@H]2C` [oligomycin, reference compound], in data set [16] (result in words, S6 Fig), the “effect on complex V activity” value is “suppressed each complex activity in a concentration-dependent manner”.

With `C=C(C)[C@H]1Cc2c(ccc3c2O[C@@H]2COc4cc(OC)c(OC)cc4[C@@H]2C3=O)O1` [rotenone, reference compound], the “effect on complex I activity” value in [12] is “suppressed each complex activity in a concentration-dependent manner”.

With mancozeb, the disease control value in data set [17] amounted to 95%.
